We go through 8 compounds from patent US20250145571A1, “AMINO ACID PRODRUGS OF NICORANDIL” (Unicycive Therapeutics, Inc., priority 2023, published 2025).

Where two headings read alike, the source gives them in different places. Some results are limits rather than exact numbers.

Data set [1] in a line: Liver microsomal stability, human. The class given is in vitro ADME. The note with it: for Hepatic Extraction Ratio / Predicted Hepatic CL: human liver microsomes 0.5 mg/mL, 1 μM, NADPH. Here is the method:
(§1) Each test compound and assay control (final concentration of 1 μM) were incubated with liver microsomes (final protein concentration of 0.5 mg/mL) from rats, dogs or humans at 37° C. in the presence of NADPH for 0.5, 5, 10, 15, 30 and 60 min. The reaction was terminated by adding ice-cold acetonitrile containing internal standard at each time point following incubation. The samples were then centrifuged at 4000 rpm for 10 minutes and the supernatant was analyzed by LC-MS/MS. The predicted hepatic clearance and the hepatic extraction ratio were calculated for the test compounds and the assay control.

For data set [2] the following is noted: rat; for AUClast / Cmax / F (%) / Tmax / t1/2 / AUClast (ng * h/mL) / Cmax (ng/mL) / Median Tmax: male, Sprague-Dawley; for AUClast / Cmax / F (%) / Tmax / t1/2 / AUClast (ng * h/mL) / Cmax (ng/mL) / Median Tmax / increase in AUC from 3 mg/kg to 14 mg/kg (in words) / release of nicorandil in vivo (in words): po.
Data set [3] in a line: Plasma stability, human plasma. The class given is in vitro ADME. The note with it: for half-life at 1 µM / % PCR (at 60 minutes): 37° C., 1 μM; for % PCR (at 60 minutes): parent compound remaining at 60 minutes. On the procedure: (§2) Each test compound and assay control (final concentration of 1 μM) were incubated with human plasma or rat plasma at 37° C. for 0.5, 5, 30 and 60 minutes. The reaction was quenched with ice-cold acetonitrile containing internal standard (cetirizine/tolbutamide/telmisartan) following incubation.

Data set [4] can be described thus: Intestinal microsomal stability, human. The class given is in vitro ADME. The note with it: for half-life at 1 µM / microsomal CLint at 1 µM: human intestinal microsomes 1 mg/mL protein, NADPH, 37° C.; for microsomal CLint at 1 µM: read-out: CLint (μL/min/mg protein). Here is the method: (§3) Each test compound and assay control (final concentration of […]) were incubated with intestinal microsomes (final protein concentration of 1 mg/mL) from rats, dogs or humans at 37° C. in the presence of NADPH for 0.5, 5, 10, 15, 30 and 60 minutes. The reaction was terminated by adding ice-cold acetonitrile containing internal standard (cetirizine/tolbutamide/telmisartan) at each time point following incubation. Samples were then centrifuged at 4000 rpm for 10 minutes and the supernatant was analyzed by LC-MS/MS. The in vitro half-life (t1/2) and intrinsic clearance (CLint) were calculated for the test compounds and the assay control.

Data set [5] can be described thus: Intestinal microsomal stability, rat. The following applies: for half-life at 1 µM / microsomal CLint at 1 µM: rat intestinal microsomes 1 mg/mL protein, NADPH, 37° C.; for microsomal CLint at 1 µM: read-out: CLint (μL/min/mg protein). It counts as in vitro ADME. Here is the method: as §3
Data set [6] can be described thus: Liver microsomal stability, rat. The following applies: for Hepatic Extraction Ratio / Predicted Hepatic CL: rat liver microsomes 0.5 mg/mL, 1 μM, NADPH. The class given is in vitro ADME. Here is the method:
as §1

A short description of data set [7]: Plasma stability, rat plasma. The note with it: for half-life at 1 µM / % PCR (at 60 minutes): 37° C., 1 μM; for % PCR (at 60 minutes): parent compound remaining at 60 minutes. It counts as in vitro ADME. Here is the method: as §2
The nature of data set [8]: Intestinal microsomal stability, dog. The class given is in vitro ADME. The following applies: for half-life at 1 µM / microsomal CLint at 1 µM: dog intestinal microsomes 1 mg/mL protein, NADPH, 37° C.; for microsomal CLint at 1 µM: read-out: CLint (μL/min/mg protein). On the procedure: as §3
The nature of data set [9]: Liver microsomal stability, dog. It counts as in vitro ADME. The note with it: for Hepatic Extraction Ratio / Predicted Hepatic CL: dog liver microsomes 0.5 mg/mL, 1 μM, NADPH. Here is the method: as §1
The nature of data set [10]: Pharmacokinetic study in rats, single oral dose. The note with it: rat, 0.25% sodium CMC.
[11] abbreviates: compared to nitrate salt of compound 8.

`CCCCCCCCCCCC(=O)OC[n+]1cccc(C(=O)NCCO[N+](=O)[O-])c1.[Cl-]` [Compound 10]: the figures for the “Hepatic Extraction Ratio” value in [1], in data set [6] and in [9] were 0.90, 0.84 and 1.0, respectively. The “Predicted Hepatic CL” value in [1] is reported as 19 mL/min/kg; in data set [6], 46 mL/min/kg; in [9] it was 4 mL/min/kg. Further, the “stability in liver microsomes (in words)” value in data set [1] (human liver microsomes, compared to nitrate salt of compound 8) is recorded as “unstable”; in [6] (rat liver microsomes, compared to nitrate salt of compound 8), “unstable”; in data set [9] (dog liver microsomes, compared to nitrate salt of compound 8), “unstable”. For the same compound, the “AUClast” value in data set [2] (in vivo, 3 mg/kg) was found to be 5513 ng·h/mL. In addition, the highest concentration (Cmax) (as a rule, the peak of the concentration-time curve) in [2] (in vivo, 3 mg/kg) worked out at 2226 ng/mL; in data set [2] (in vivo, 14 mg/kg) it was 6297 ng/mL. The “F (%)” value is recorded as 67% in data set [2] (in vivo, 3 mg/kg) and 97% in [2] (in vivo, 14 mg/kg). Further, the time to peak (Tmax) (in general, the time at which the peak concentration occurs) in data set [2] (in vivo, 3 mg/kg) turned out to be 30 min; in [2] (in vivo, 14 mg/kg), 240 min. Also, the “t1/2” value is 244 min in data set [2] (in vivo, 3 mg/kg) and 164 min in data set [2] (in vivo, 14 mg/kg). Moreover, the “AUClast (ng * h/mL)” value in [2] (in vivo, 3 mg/kg, pH 4.5) is 26,838 ng * h/mL; in [2] (in vivo, 14 mg/kg), 36,526 ng * h/mL. In addition, in data set [2] (in vivo, 3 mg/kg, pH 4.5), the “Cmax (ng/mL)” value is recorded as 12,446 ng/mL. In [2] (in vivo, 3 mg/kg, pH 4.5), the “Median Tmax” value worked out at 15 min. In [2] (in vivo), the “oral bioavailability of nicorandil after oral dosing (in words)” value is recorded as “high”. The “increase in AUC from 3 mg/kg to 14 mg/kg (in words)” value in [2] (in vivo) was “more than dose proportional”. For the same compound, in data set [2], the “release of nicorandil in vivo (in words)” value was “release nicorandil in vivo”. Besides, the half-life (as a rule, how long it takes for the measured level to halve) at 1 µM in data set [3] amounted to 1.23 min; in data set [4], 24 min; in data set [5], 26 min; in data set [7] it was 1.59 min; in data set [8] it was 47 min. Also, the “% PCR (at 60 minutes)” value in data set [3] and in data set [7] was 0% throughout. The “release in plasma (in words)” value in data set [3] (setting [11]) and in data set [7] (setting [11]) was “rapidly released” throughout. Besides, the microsomal CLint at 1 µM in data set [4] stood at 29 µL/min/mg; in data set [5], 27 µL/min/mg; in data set [8] it was 15 µL/min/mg. Also, the “clearance in intestinal microsomes (in words)” value was “high clearance” in [4] (human intestinal microsomes, compared to nitrate salt of compound 8 and compounds 11 and 13); “high clearance” in data set [5] (rat intestinal microsomes, compared to nitrate salt of compound 8 and compounds 11 and 13); “high clearance” in data set [8] (dog intestinal microsomes, compared to nitrate salt of compound 8 and compounds 11 and 13).

With `CCC(C)(C)C(=O)OC[n+]1cccc(C(=O)NCCO[N+](=O)[O-])c1.[Cl-]` [Compound 11], in data set [2] (in vivo, 3 mg/kg), the “AUClast” value came to 2289 ng·h/mL, the “Cmax” value worked out at 1171 ng/mL, the “F (%)” value is reported as 28% and the “Tmax” value is 15 min. Moreover, in data set [2] (in vivo, 3 mg/kg, pH 4.5), the “AUClast (ng * h/mL)” value is listed as 22,632 ng * h/mL, the “Cmax (ng/mL)” value is given as 15,223 ng/mL and the “Median Tmax” value turned out to be 15 min. For the same compound, in data set [2] (in vivo, 14 mg/kg), the “AUClast” value turned out to be 27422 ng·h/mL, the “Cmax” value is 6245 ng/mL, the “F (%)” value turned out to be 72% and the “Tmax” value was 15 min. Moreover, the “increase in AUC from 3 mg/kg to 14 mg/kg (in words)” value in data set [2] (in vivo) is “more than dose proportional”. Further, the “release of nicorandil in vivo (in words)” value in data set [2] is recorded as “release nicorandil in vivo”. For the same compound, in [4], the half-life at 1 µM is greater than 60 min and the microsomal CLint at 1 µM was less than 6 µL/min/mg. Also, in data set [5], the half-life at 1 µM was greater than 60 min and the microsomal CLint at 1 µM turned out to be 8 µL/min/mg. In [8], the half-life at 1 µM was greater than 60 min and the microsomal CLint at 1 µM was 9 µL/min/mg.

In the case of `Cc1oc(=O)oc1C[n+]1cccc(C(=O)NCCO[N+](=O)[O-])c1.[Cl-]` [Compound 12], in data set [2] (in vivo, 3 mg/kg, pH 4.5), the “AUClast” value came out at 8893 ng·h/mL, the maximum concentration (Cmax) is on record as 4065 ng/mL and the “Median Tmax” value turned out to be 30 min.

Take `O=C(NCCO[N+](=O)[O-])c1ccc[n+](COC(=O)N2CCCC2C(=O)O)c1.[Cl-]` (stereo not drawn) [Compound 13]: the half-life at 1 µM in data set [4], in data set [5] and in data set [8] was greater than 60 min each time. Besides, the microsomal CLint at 1 µM in data set [4], in [5] and in data set [8] was less than 6 µL/min/mg each time.

Take `CCOC(=O)[C@H](CCc1ccccc1)N[C@@H](C)C(=O)N1CCC[C@H]1C(=O)O` [Enalapril]: in data set [7], the half-life at 1 µM came out at 18.9 min and the “% PCR (at 60 minutes)” value is recorded as 11.2%.

As for `O=C(NCCO[N+](=O)[O-])c1cccnc1` [Nicorandil], in data set [3], the half-life at 1 µM is greater than 60 min and the “% PCR (at 60 minutes)” value came out at 109%. In addition, in data set [7], the half-life at 1 µM is greater than 60 min and the “% PCR (at 60 minutes)” value is given as 114%.

As to `CC(C)[N+](C)(CCOC(=O)C1c2ccccc2Oc2ccccc21)C(C)C` [Propantheline Bromide], in data set [3], the half-life at 1 µM turned out to be 21.3 min and the “% PCR (at 60 minutes)” value is listed as 9.2%.

For `C[C@H](NC(=O)OC[n+]1cccc(C(=O)NCCO[N+](=O)[O-])c1)C1CCCCC1.O=[N+]([O-])[O-]` [reference compound], the “Hepatic Extraction Ratio” value is 0.71 in [1], greater than 0.89 in data set [6] and 0.84 in data set [9]. The “Predicted Hepatic CL” value is on record as 15 mL/min/kg in [1], greater than 49 mL/min/kg in data set [6] and 26 mL/min/kg in data set [9]. For the same compound, the half-life at 1 µM in data set [3] was 31.2 min; in data set [4] it was greater than 60 min; in data set [5], greater than 60 min; in data set [7] it was 38.2 min; in data set [8] it was greater than 60 min. For the same compound, the “% PCR (at 60 minutes)” value is reported as 28.7% in data set [3] and 36.2% in data set [7]. Moreover, the microsomal CLint at 1 µM in [4] is 9 µL/min/mg; in data set [5], less than 6 µL/min/mg; in data set [8], less than 6 µL/min/mg. Further, in [10], the “release of nicorandil in vivo (in words)” value is listed as “release nicorandil in vivo”.
